pIC50: −log10 of the molar value. ≈ marks a conversion by molar mass, not a printed value.
molecular target: T1, PBP1 (Neisseria gonorrhoeae, UniProt O05131); assay: PBP-binding assay (Bocillin FL) in isolated membrane preparations; settings: strain ATCC 19424; membrane preparation, 30 min drug then Bocillin FL; read-out: IC50 PBP1 (converted)
T1 construct: endogenous in cells; host or cells: N. gonorrhoeae ATCC 19424, isolated membrane preparation
Description: (§1) Bacterial membranes were collected by ultracentrifugation.

SMILES	IC50 [µM]
CO/N=C(\C(=O)N[C@@H]1C(=O)N2C(C(=O)O)=C(CSc3nc(=O)c(=O)[nH]n3C)CS[C@H]12)c1csc(N)n1 [CRO, ceftriaxone]	3.37
CO/N=C(\C(=O)N[C@@H]1C(=O)N2C(C(=O)O)=C(COC(C)=O)CS[C@H]12)c1csc(N)n1 [CTX, cefotaxime]	4.06
C[C@@H](O)[C@H]1C(=O)N2C(C(=O)O)=C(S[C@@H]3CN[C@H](C(=O)Nc4cccc(C(=O)O)c4)C3)[C@H](C)[C@H]12 [ETP, ertapenem]	1.01
CO/N=C(\C(=O)N[C@@H]1C(=O)N2C(C(=O)[O-])=C(C[N+]3(C)CCCC3)CS[C@H]12)c1csc(N)n1 [FEP, cefepime]	> 4.16

molecular target: T2, PBP2 (Neisseria gonorrhoeae, UniProt P08149, H541N); assay: as above; parameters: species or system Neisseria gonorrhoeae ATCC 19424; settings: IC50 PBP2, strain ATCC 19424; membrane preparation, 30 min drug then Bocillin FL
T2 construct: endogenous in cells; host or cells: N. gonorrhoeae ATCC 19424, isolated membrane preparation

SMILES	pIC50
CO/N=C(\C(=O)N[C@@H]1C(=O)N2C(C(=O)O)=C(COC(C)=O)CS[C@H]12)c1csc(N)n1 [CTX, cefotaxime]	7.66
C[C@@H](O)[C@H]1C(=O)N2C(C(=O)O)=C(S[C@@H]3CN[C@H](C(=O)Nc4cccc(C(=O)O)c4)C3)[C@H](C)[C@H]12 [ETP, ertapenem]	7.08

molecular target: T3, PBP1 (Neisseria gonorrhoeae, UniProt O05131, A375T/F666S); assay: as above; parameters: species or system Neisseria gonorrhoeae ATCC 49226; settings: IC50 PBP1, strain ATCC 49226; membrane preparation, 30 min drug then Bocillin FL
T3 construct: endogenous in cells; host or cells: N. gonorrhoeae ATCC 49226, isolated membrane preparation
Description: as §1

SMILES	pIC50
CO/N=C(\C(=O)N[C@@H]1C(=O)N2C(C(=O)O)=C(CSc3nc(=O)c(=O)[nH]n3C)CS[C@H]12)c1csc(N)n1 [CRO, ceftriaxone]	5.47
CO/N=C(\C(=O)N[C@@H]1C(=O)N2C(C(=O)O)=C(COC(C)=O)CS[C@H]12)c1csc(N)n1 [CTX, cefotaxime]	< 5.36
C[C@@H](O)[C@H]1C(=O)N2C(C(=O)O)=C(S[C@@H]3CN[C@H](C(=O)Nc4cccc(C(=O)O)c4)C3)[C@H](C)[C@H]12 [ETP, ertapenem]	5.92
CO/N=C(\C(=O)N[C@@H]1C(=O)N2C(C(=O)[O-])=C(C[N+]3(C)CCCC3)CS[C@H]12)c1csc(N)n1 [FEP, cefepime]	< 5.38

molecular target: T4, PBP2 (Neisseria gonorrhoeae, UniProt P08149, A510V/A516G/A574V/F504L/H541N/I556V/I566V/K555Q/P552V); assay: biochemical; assay type: binding, Neisseria gonorrhoeae ATCC 49226; settings: IC50 PBP2, strain ATCC 49226; membrane preparation, 30 min drug then Bocillin FL
T4 construct: endogenous in cells; host or cells: N. gonorrhoeae ATCC 49226, isolated membrane preparation

SMILES	pIC50
CO/N=C(\C(=O)N[C@@H]1C(=O)N2C(C(=O)O)=C(COC(C)=O)CS[C@H]12)c1csc(N)n1 [CTX, cefotaxime]	7.66
C[C@@H](O)[C@H]1C(=O)N2C(C(=O)O)=C(S[C@@H]3CN[C@H](C(=O)Nc4cccc(C(=O)O)c4)C3)[C@H](C)[C@H]12 [ETP, ertapenem]	7.68

tested on: N. gonorrhoeae ATCC 19424; assay: MIC, CLSI broth microdilution; assay type: cell-based; settings: Neisseria gonorrhoeae, ATCC19424; strain ATCC 19424; read-out: MIC

SMILES	MIC [ng/mL]
CO/N=C(\C(=O)N[C@@H]1C(=O)N2C(C(=O)O)=C(CSc3nc(=O)c(=O)[nH]n3C)CS[C@H]12)c1csc(N)n1 [CRO, ceftriaxone]	4 (≈ 0.00721 µM)
CO/N=C(\C(=O)N[C@@H]1C(=O)N2C(C(=O)O)=C(COC(C)=O)CS[C@H]12)c1csc(N)n1 [CTX, cefotaxime]	4 (≈ 0.00878 µM)
C[C@@H](O)[C@H]1C(=O)N2C(C(=O)O)=C(S[C@@H]3CN[C@H](C(=O)Nc4cccc(C(=O)O)c4)C3)[C@H](C)[C@H]12 [ETP, ertapenem]	4 (≈ 0.00841 µM)
CO/N=C(\C(=O)N[C@@H]1C(=O)N2C(C(=O)[O-])=C(C[N+]3(C)CCCC3)CS[C@H]12)c1csc(N)n1 [FEP, cefepime]	8 (≈ 0.0166 µM)

same assay, conditions: Neisseria gonorrhoeae, ATCC19424; strain ATCC 19424; read-out: MIC (Table S1)

SMILES	MIC [ng/mL]
CO/N=C(\C(=O)N[C@@H]1C(=O)N2C(C(=O)O)=C(CSc3nc(=O)c(=O)[nH]n3C)CS[C@H]12)c1csc(N)n1 [CRO, ceftriaxone]	4 (≈ 0.00721 µM)
CO/N=C(\C(=O)N[C@@H]1C(=O)N2C(C(=O)O)=C(COC(C)=O)CS[C@H]12)c1csc(N)n1 [CTX, cefotaxime]	4 (≈ 0.00878 µM)
C[C@@H](O)[C@H]1C(=O)N2C(C(=O)O)=C(S[C@@H]3CN[C@H](C(=O)Nc4cccc(C(=O)O)c4)C3)[C@H](C)[C@H]12 [ETP, ertapenem]	4 (≈ 0.00841 µM)
CO/N=C(\C(=O)N[C@@H]1C(=O)N2C(C(=O)[O-])=C(C[N+]3(C)CCCC3)CS[C@H]12)c1csc(N)n1 [FEP, cefepime]	8 (≈ 0.0166 µM)

tested on: N. gonorrhoeae ATCC 49226; assay: MIC, CLSI broth microdilution; assay type: cell-based, Neisseria gonorrhoeae; settings: Neisseria gonorrhoeae, ATCC49226; strain ATCC 49226; read-out: MIC

SMILES	MIC [ng/mL]
CO/N=C(\C(=O)N[C@@H]1C(=O)N2C(C(=O)O)=C(CSc3nc(=O)c(=O)[nH]n3C)CS[C@H]12)c1csc(N)n1 [CRO, ceftriaxone]	2 (≈ 0.00361 µM)
CO/N=C(\C(=O)N[C@@H]1C(=O)N2C(C(=O)O)=C(COC(C)=O)CS[C@H]12)c1csc(N)n1 [CTX, cefotaxime]	8 (≈ 0.0176 µM)
C[C@@H](O)[C@H]1C(=O)N2C(C(=O)O)=C(S[C@@H]3CN[C@H](C(=O)Nc4cccc(C(=O)O)c4)C3)[C@H](C)[C@H]12 [ETP, ertapenem]	8 (≈ 0.0168 µM)
CO/N=C(\C(=O)N[C@@H]1C(=O)N2C(C(=O)[O-])=C(C[N+]3(C)CCCC3)CS[C@H]12)c1csc(N)n1 [FEP, cefepime]	32 (≈ 0.0666 µM)

same assay, conditions: Neisseria gonorrhoeae, ATCC49226; strain ATCC 49226; read-out: MIC (Table S1)

SMILES	MIC [ng/mL]
CO/N=C(\C(=O)N[C@@H]1C(=O)N2C(C(=O)O)=C(CSc3nc(=O)c(=O)[nH]n3C)CS[C@H]12)c1csc(N)n1 [CRO, ceftriaxone]	8 (≈ 0.0144 µM)
CO/N=C(\C(=O)N[C@@H]1C(=O)N2C(C(=O)O)=C(COC(C)=O)CS[C@H]12)c1csc(N)n1 [CTX, cefotaxime]	8 (≈ 0.0176 µM)
C[C@@H](O)[C@H]1C(=O)N2C(C(=O)O)=C(S[C@@H]3CN[C@H](C(=O)Nc4cccc(C(=O)O)c4)C3)[C@H](C)[C@H]12 [ETP, ertapenem]	8 (≈ 0.0168 µM)
CO/N=C(\C(=O)N[C@@H]1C(=O)N2C(C(=O)[O-])=C(C[N+]3(C)CCCC3)CS[C@H]12)c1csc(N)n1 [FEP, cefepime]	32 (≈ 0.0666 µM)

molecular target: PBP1, PBP2 and PBP3 (Neisseria gonorrhoeae, UniProt P08149, H541N); assay: not given; assay type: binding, Neisseria gonorrhoeae ATCC 19424; settings: read-out: min. IC50 (minimum observed IC50 value); strain ATCC 19424

SMILES	pIC50
CO/N=C(\C(=O)N[C@@H]1C(=O)N2C(C(=O)O)=C(COC(C)=O)CS[C@H]12)c1csc(N)n1 [CTX, cefotaxime]	7.66

molecular target: PBP1, PBP2 and PBP3 (Neisseria gonorrhoeae, UniProt P08149, A510V/A516G/A574V/F504L/H541N/I556V/I566V/K555Q/P552V); assay: not given; assay type: binding, Neisseria gonorrhoeae ATCC 49226; settings: read-out: min. IC50 (minimum observed IC50 value); strain ATCC 49226

SMILES	pIC50
CO/N=C(\C(=O)N[C@@H]1C(=O)N2C(C(=O)O)=C(COC(C)=O)CS[C@H]12)c1csc(N)n1 [CTX, cefotaxime]	7.66

tested on: N. gonorrhoeae ATCC 19424 and ATCC 49226; assay: MIC, summary over both strains; assay type: cell-based, Neisseria gonorrhoeae; settings: compared with imipenem

SMILES	times more active [times]
C[C@@H](O)[C@H]1C(=O)N2C(C(=O)O)=C(S[C@@H]3CN[C@H](C(=O)Nc4cccc(C(=O)O)c4)C3)[C@H](C)[C@H]12 [ETP, ertapenem]	8

molecular target: T5, PBP3 (Neisseria gonorrhoeae, UniProt Q5FAB9); assay: not given; settings: read-out: IC50 PBP3; strain ATCC 19424; membrane preparation, 30 min drug then Bocillin FL
T5 sequence (Q5FAB9 22-469): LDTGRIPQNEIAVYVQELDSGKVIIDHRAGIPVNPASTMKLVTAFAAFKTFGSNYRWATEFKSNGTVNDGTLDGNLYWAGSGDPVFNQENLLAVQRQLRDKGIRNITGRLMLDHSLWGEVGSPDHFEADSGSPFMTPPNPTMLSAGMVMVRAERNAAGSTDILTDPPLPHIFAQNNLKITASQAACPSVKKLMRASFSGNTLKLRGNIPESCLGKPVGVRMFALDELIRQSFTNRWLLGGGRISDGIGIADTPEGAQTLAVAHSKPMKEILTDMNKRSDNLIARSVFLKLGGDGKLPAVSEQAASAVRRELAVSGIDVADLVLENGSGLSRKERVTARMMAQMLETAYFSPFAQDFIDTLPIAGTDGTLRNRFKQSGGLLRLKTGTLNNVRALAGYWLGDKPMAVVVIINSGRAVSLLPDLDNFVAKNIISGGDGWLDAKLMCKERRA

SMILES	pIC50
CO/N=C(\C(=O)N[C@@H]1C(=O)N2C(C(=O)O)=C(COC(C)=O)CS[C@H]12)c1csc(N)n1 [CTX, cefotaxime]	5.50

molecular target: T5, PBP3; assay: not given; settings: read-out: IC50 PBP3; strain ATCC 49226; membrane preparation, 30 min drug then Bocillin FL

SMILES	pIC50
CO/N=C(\C(=O)N[C@@H]1C(=O)N2C(C(=O)O)=C(COC(C)=O)CS[C@H]12)c1csc(N)n1 [CTX, cefotaxime]	5.65

molecular target: PBP2 (Neisseria gonorrhoeae, UniProt P08149); assay: not given; settings: read-out: IC50 for PBP2; across both strains ATCC 19424 and ATCC 49226

SMILES	pIC50
CO/N=C(\C(=O)N[C@@H]1C(=O)N2C(C(=O)O)=C(COC(C)=O)CS[C@H]12)c1csc(N)n1 [CTX, cefotaxime]	7.66

Reference: publication PMC10269775, “Penicillin-Binding Protein Occupancy Dataset for 18 β-Lactams and 4 β-Lactamase Inhibitors in Neisseria gonorrhoeae” (Microbiology Spectrum, 2023)
